In paper PMC10813298, “Evidence of Guanidines Potential against Leishmania (Viannia) braziliensis: Exploring In Vitro Effectiveness, Toxicities and of Innate Immunity Response Effects” (Biomolecules, 2023):
Read-outs that look alike come from different tables or passages of the source.

Assays:
[1] = test system: L. (V.) braziliensis promastigotes; assay: Antileishmanial activity on promastigotes (MTT, 72 h); type: cell-based, Leishmania (Viannia) braziliensis
Description: Leishmania (Viannia) braziliensis (MHOM/BR/1975/M2903) was utilized in this study. The promastigote forms of these parasites were maintained in vitro in Schneider’s insect medium pH 7.2, supplemented with 20% fetal bovine serum (FBS) and 1% antibiotic solution (100 U/mL penicillin and 100 μg/mL streptomycin) at a temperature of 26 ± 1 °C in a Biochemical Oxygen Demand (BOD) incubator (Eletrolab EL202, São Paulo, Brazil), with regular aeration and weekly subculturing.
Assessment of antileishmanial activity against promastigote and amastigote axenic forms of parasites followed the method described by Rodrigues et al. and involved the following steps: L. (V.) braziliensis parasites were cultured in 96-well plates at a concentration of 1 × 10^6 parasites per well. Each well contained 100 μL of supplemented Schneider medium. Serial concentrations of the test substances, ranging from 50 to 1.56 μmol/L, were prepared. Reference drugs, meglumine antimoniate (20 to 40,000 μmol/L) and amphotericin B (0.031 to 2 μmol/L) were also prepared. These concentrations were used to assess the effects of the test substances in comparison to reference drugs. The plates were incubated in a BOD incubator at 26 °C for 72 h. After the 72 h incubation period, 10 μL of MTT (5 mg/mL) was added to each well. The plates were then incubated for an additional 4 h. At the end of the 4 h incubation, formazan crystals formed by the reduction of the MTT salt were solubilized by adding 50 μL of a 10% (w/v) sodium dodecyl sulfate (SDS) solution in distilled water. Absorbance was measured using a microplate reader at a wavelength of 540 nm (Biosystems ELx800 model, Curitiba, PR, Brazil). This measurement quantified the metabolic activity of the parasites, which is indicative of their viability and proliferation. Schneider medium containing 0.2% DMSO was used as a negative control in the tests.
The different mean concentrations for promastigotes (IC50) and macrophages (CC50) were calculated using nonlinear regression. For comparisons between groups, ANOVA analysis of variance was performed followed by Tukey’s test in a statistical program, taking the p-value < 0.05 as the maximum level of statistical significance.

IL-12 = assay: Cytokine production in supernatant of infected macrophages (ELISA), IL-12; type: cell-based, murine; conditions: supernatant of RAW 264.7 macrophages infected with L. (V.) braziliensis
Description: (§1) To assess the production of cytokines TNF-α and IL-12 (associated with Th1 response), as well as IL-10 and IL-6 (associated with Th2 response), in the supernatants of the macrophage infection assay, the sandwich enzyme-linked immunosorbent assay (ELISA) method was employed, following the manufacturer’s instructions (eBioscience^TM, San Diego, CA, USA). Initially, capture antibodies specific to TNF-α, IL-6, IL-10, and IL-12 were sensitized in ELISA plates (NUNC-ImmunoTM, Sigma-Aldrich, St. Louis, MO, USA). The plates were incubated at 4 °C for 18 h. After the incubation period, all wells were washed with a solution containing 0.05% PBS and Tween 20 (Sigma-Aldrich, St. Louis, MO, USA). A blocking solution containing 10% FBS in PBS was added to the wells and incubated for 1 h. Subsequently, the wells were washed again. The supernatant obtained from the macrophage infection assay was added to the respective wells. Known concentrations of recombinant cytokines (TNF-α, IL-10, IL-6, and IL-12) were also added to the plate in parallel, covering a range from high to low concentrations. The plates were maintained at 4 °C for another 18 h. […] The absorbance was measured in a plate reader at a wavelength of 450 nm. The concentration of cytokines (TNF-α, IL-10, IL-6, and IL-12) in the supernatants was determined by interpolation from the standard curve.

IL-10 = assay: Cytokine production in supernatant of infected macrophages (ELISA), IL-10; type: cell-based, murine; conditions: supernatant of RAW 264.7 macrophages infected with L. (V.) braziliensis
Description: as §1

right atrium = assay: Chronotropic effect on isolated right atrium; set-up: species or system guinea pig; conditions: for effect on heart rate (chronotropic): isolated guinea pig heart muscle preparation, up to 100 µmol/L
Description: Guinea pigs of either sex weighing between 250 or 380 g were utilized in this study. The animals were housed in a controlled environment in an air-conditioned room, maintaining a temperature of 22 to 24 °C and a relative humidity of 50% to 60%. A 12 h light–dark cycle was maintained.
On the day of the experiments, the animals were euthanized via cervical dislocation. The heart, aorta, pulmonary artery, and ileum were surgically removed and immersed in Krebs–Henseleit solution, with the following composition: NaCl 144.9 mM, KCl 4.73 mM, CaCl2 3.2 mM, MgSO4 1.18 mM, NaHCO3 24.9 mM, KH2PO4 1.18 mM, and glucose 10 mM, with the pH maintained at 7.2–7.4. This solution was continuously aerated with a mixture of 95% O2 and 5% CO2.
Papillary muscles were isolated from the right ventricle of the heart and meticulously cleared of Purkinje fibers to prevent spontaneous activity. To ensure adequate oxygen supply, only muscles with a diameter less than 0.87 mm were used. The right atrium was also dissected for assessment of chronotropic activity. Both the aorta and pulmonary artery were cleaned and cut into 5 mm rings, while the ileum was sectioned into pieces measuring 1 to 2 cm.
One end of the dissected tissues was securely tied with silver wire for attachment to a tissue holder, while the other end was connected to a force transducer (Transbridge™, 4-Channel Transducer Amplifier, World Precision Instruments, Sarasota, FL, USA). For contractile measurements, the terminal ileum was stimulated with 60 mM KCl, and the pulmonary artery and aorta rings were exposed to a 90 mM KCl solution. Papillary muscles were electrically stimulated using an Anapulse Stimulator Model 301-T and an Isolation Unit Model 305-1 (WPI, Hamden, CT, USA) with rectangular pulses of 3 ms duration at a frequency of 1 Hz. The amplitude of the stimulation pulse was maintained at 10% above the threshold level. To optimize contractility, a constant resting tension was applied throughout the experiment: 3.9 mN for papillary muscle, 4.9 mN for terminal ileum, 10.4 mN for the right atrium, and 19.6 mN for aorta and pulmonary artery rings.
Following a 30 min control period, different concentrations of test compounds were cumulatively added to the bath solution every 45 min until a stable effect was achieved. The responses were recorded using a chart recorder (BD 112 Dual Channel, Kipp &Zonen, PO Box 507, 2624 BC, Delft, Holland) for subsequent evaluation. Stock concentrations of the test compounds were prepared using DMSO. To account for any potential DMSO effect, control experiments were conducted with the solvent alone, and the observed effects were subtracted from the responses elicited by the test compounds.

LmCPB2.8ΔCTE = test system: LmCPB2.8ΔCTE; set-up: method as in PMID 36551331; conditions: previous findings; cited from earlier work

| Compound | IC50 [1] [µM] | IC50 ([1]; Leishmania braziliensis) [µM] | IL-12 level (IL-12) | IL-10 level (IL-10) | effect on heart rate (chronotropic) (right atrium) | EC50 (right atrium; Cavia porcellus, isolated guinea pig right atrium, 3 to 100 µmol/L, read-out: EC50 reduction of heart rate activity) [µM] | inhibition of the enzyme LmCPB2.8ΔCTE (LmCPB2.8ΔCTE) [%] |
| --- | --- | --- | --- | --- | --- | --- | --- |
| O=C(/N=C(/NCc1ccccc1)Nc1ccc([N+](=O)[O-])cc1)c1ccccc1 [LQOF-G1, (Z)-N-benzoyl-N-benzyl-N-(4-nitrophenyl)guanidine] | 4.6 ± 0.5 | 4.62 | increased | decreased | slight decrease in heart rate |  |  |
| O=C(/N=C(/NCc1ccccc1)Nc1ccc(Br)cc1)c1ccccc1 [LQOF-G2, (Z)-N-benzoyl-N-benzyl-N-(4-bromophenyl)guanidine] |  | 5.4 ± 0.8 |  | decreased |  | 69 |  |
| CC(C)(C)c1ccc(N/C(=N\C(=O)c2ccccc2)NCc2ccccc2)cc1 [LQOF-G6, (Z)-N-benzoyl-N-benzyl-N-(4-tert-butylphenyl)guanidine] |  | 5.9 ± 0.9 |  |  |  |  | 73 |
| O=C(/N=C(/NCc1ccccc1)Nc1ccc(I)cc1)c1ccccc1 [LQOF-G7, (Z)-N-benzoyl-N-benzyl-N-(4-iodophenyl)guanidine] |  | 7.2 ± 0.6 |  |  | slight decrease in heart rate |  |  |
| O=C(/N=C(/NCc1ccc(Cl)cc1Cl)Nc1ccc(Br)cc1)c1ccccc1 [LQOF-G32, (Z)-N-benzoyl-N-(2,4-di-chlorobenzyl)-N-(4-bromophenyl)guanidine] |  | 17.2 ± 1 |  |  | slight decrease in heart rate |  |  |
